Numbers after ± are expanded uncertainties.
Experiments:
[1] = wn = mass fraction of the nth substance listed; conditions: 101 kPa, Liquid; for viscosity: Concentric cylinders viscometry; for mass density: Vibrating tube method
[2] = Liquid; for viscosity / mass density: 101 kPa; for viscosity: Concentric cylinders viscometry; for mass density: Vibrating tube method; for vapor or sublimation pressure: Closed cell (Static) method

CN(CCO)CCO [N-methyldiethanolamine] + O
[1]
Conditions	mass density, 298.15 K [kg/m3]	mass density, 308.15 K [kg/m3]	mass density, 323.15 K [kg/m3]	viscosity, 298.15 K [mPa·s]	viscosity, 308.15 K [mPa·s]	viscosity, 323.15 K [mPa·s]
w1 = 0.2	1014.8 ± 2.4	1010.6 ± 2.4	1002.9 ± 2.4	1.932 ± 0.1	1.51 ± 0.1	1.061 ± 0.1
w1 = 0.3	1025.2 ± 2.4	1021.1 ± 2.4	1013.2 ± 2.4	3.081 ± 0.1	2.263 ± 0.1	1.521 ± 0.1
w1 = 1	1036.9 ± 2.4	1029.8 ± 2.4	1018.3 ± 2.4	77.29 ± 0.88	44.99 ± 0.51	22.6 ± 0.34

CC(O)CN(C)C (stereo not drawn) [1-(dimethylamino)-2-propanol]
[2]
Conditions	mass density [kg/m3]	vapor or sublimation pressure [kPa]	viscosity [mPa·s]
298.15 K	845.4 ± 2.4	–	1.332 ± 0.1
298.49 K	–	4.13 ± 2	–
303.15 K	840.3 ± 2.4	–	1.183 ± 0.1
303.88 K	–	6.59 ± 2	–
308.15 K	835.5 ± 2.4	–	1.059 ± 0.1
308.43 K	–	8.03 ± 2	–
313.15 K	830.7 ± 2.4	–	0.955 ± 0.1
313.34 K	–	10.34 ± 2	–
318.15 K	825.8 ± 2.4	–	0.866 ± 0.1
318.26 K	–	12.51 ± 2	–
323.15 K	820.9 ± 2.4	–	0.788 ± 0.1
323.6 K	–	15.84 ± 2	–
328.15 K	816 ± 2.4	–	0.72 ± 0.1
328.26 K	–	18.73 ± 2	–
333.04 K	–	23.06 ± 2	–
333.15 K	811.1 ± 2.4	–	0.662 ± 0.1

CN(CCO)CCO [N-methyldiethanolamine]
[2]
Conditions	mass density [kg/m3]	viscosity [mPa·s]
298.15 K	1036.9 ± 2.4	77.29 ± 0.88
308.15 K	1029.8 ± 2.4	44.99 ± 0.51
323.15 K	1018.3 ± 2.4	22.6 ± 0.34

Reference: the NIST ThermoML archive (doi:10.1016/j.fluid.2017.09.019)
